Legend:
[1] = target: Glycogen synthase kinase-3 (Sus scrofa, UniProt B2LUN4+I6LNT8)
Description: Inhibition of native porcine brain GSK-3alpha/beta using GS-1 as substrate incubated for 30 mins in presence of [gamma-33P]ATP by liquid scintillation counting assay

[2] = target: Cyclin-dependent kinase 5/CDK5 activator 1 (Homo sapiens, UniProt Q00535); type: protein-complex assay
Description: Inhibition of human recombinant CDK5/p25 using histone H1 as substrate in presence of [gamma-33P]ATP incubated for 30 mins by liquid scintillation counting assay

HCT-116 = assay: Cytotoxicity against human HCT116 cells assessed as growth inhibition incubated for 48 hrs by Hoechst 33342 staining based assay; type: cell-based; details: HCT-116, 48 h
MDA-MB-231 = assay: Cytotoxicity against human MDA-MB-231 cells assessed as growth inhibition incubated for 48 hrs by Hoechst 33342 staining based assay; type: cell-based; details: MDA-MB-231, 48 h
Huh-7 = assay: Cytotoxicity against human HuH7 cells assessed as growth inhibition incubated for 48 hrs by Hoechst 33342 staining based assay; type: cell-based; details: Huh-7, 48 h
Caco-2 = assay: Cytotoxicity against human Caco2 cells assessed as growth inhibition incubated for 48 hrs by Hoechst 33342 staining based assay; type: cell-based; details: Caco-2, 48 h
NCI-H727 = assay: Cytotoxicity against human NCI-H727 cells assessed as growth inhibition incubated for 48 hrs by Hoechst 33342 staining based assay; type: cell-based; details: NCI-H727, 48 h
Cholinesterase = Cholinesterase (Homo sapiens, UniProt P06276); assay: Inhibition of human serum BChE using BTCh as substrate preincubated for 20 mins followed by substrate addition and measured for 3 mins by Ellman's method
Acetylcholinesterase = Acetylcholinesterase (Homo sapiens, UniProt P22303); assay: Inhibition of human recombinant AChE using ATCh as substrate preincubated for 20 mins followed by substrate addition and measured for 3 mins by Ellman method
PC-3 = assay: Cytotoxicity against human PC3 cells assessed as growth inhibition incubated for 48 hrs by Hoechst 33342 staining based assay; type: cell-based; details: PC-3, 48 h
HaCaT = assay: Cytotoxicity against human HaCaT cells assessed as growth inhibition incubated for 48 hrs by Hoechst 33342 staining based assay; type: cell-based
[3] = Cytotoxicity against human SH-SY5Y cells assessed as reduction in cell viability at 100 uM incubated for 24 hrs by MTT assay relative to untreated cells; type: cell-based; details: read-out: INH
SH-SY5Y = assay: Cytotoxicity against human SH-SY5Y cells assessed as reduction in cell viability incubated for 72 hrs by MTT assay; type: cell-based
MDR1 [4] = assay: in vitro; details: dog, MDCK-MDR1
Description: Efflux ratio of apparent permeability from basolateral to apical over apical to basolateral side in MDCK2-MDR1 cells by HPLC analysis

MDR1 [5] = assay: in vitro; details: dog, MDCK-MDR1; remark: listed apart in the source
Description: Apparent permeability across apical to basolateral side in MDCK2-MDR1 cells by HPLC analysis

MDCK-MDR1 = assay: Cytotoxicity against MDCK2-MDR1 cells assessed as reduction in cell viability at 75 uM incubated for 2 hrs by MTT assay; type: ADME, cell-based, Canis lupus familiaris; details: dog, mdck-mdr1, 2 h
MDR1 [6] = assay: in vitro; details: dog, MDCK-MDR1; remark: listed apart in the source
Description: Apparent permeability across basolateral to apical side in MDCK2-MDR1 cells by HPLC analysis

Acetylcholinesterase, sequence (P22303 whole entry): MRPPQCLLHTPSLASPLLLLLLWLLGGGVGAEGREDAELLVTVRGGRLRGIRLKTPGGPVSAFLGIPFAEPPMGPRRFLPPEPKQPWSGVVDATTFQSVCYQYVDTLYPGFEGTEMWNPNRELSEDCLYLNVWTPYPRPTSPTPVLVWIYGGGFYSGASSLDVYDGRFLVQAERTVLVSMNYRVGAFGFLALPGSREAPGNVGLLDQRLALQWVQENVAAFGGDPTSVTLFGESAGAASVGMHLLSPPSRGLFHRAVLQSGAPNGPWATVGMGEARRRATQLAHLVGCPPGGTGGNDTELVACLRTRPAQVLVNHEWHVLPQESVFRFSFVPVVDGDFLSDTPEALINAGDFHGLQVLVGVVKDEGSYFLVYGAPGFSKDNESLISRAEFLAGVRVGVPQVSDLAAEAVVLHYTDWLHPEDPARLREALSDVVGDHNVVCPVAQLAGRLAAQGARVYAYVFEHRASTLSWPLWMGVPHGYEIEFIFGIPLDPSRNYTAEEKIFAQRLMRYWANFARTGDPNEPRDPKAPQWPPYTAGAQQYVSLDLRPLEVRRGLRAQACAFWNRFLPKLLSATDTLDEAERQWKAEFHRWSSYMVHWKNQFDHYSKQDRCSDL
Cyclin-dependent kinase 5/CDK5 activator 1, sequence (Q00535 whole entry): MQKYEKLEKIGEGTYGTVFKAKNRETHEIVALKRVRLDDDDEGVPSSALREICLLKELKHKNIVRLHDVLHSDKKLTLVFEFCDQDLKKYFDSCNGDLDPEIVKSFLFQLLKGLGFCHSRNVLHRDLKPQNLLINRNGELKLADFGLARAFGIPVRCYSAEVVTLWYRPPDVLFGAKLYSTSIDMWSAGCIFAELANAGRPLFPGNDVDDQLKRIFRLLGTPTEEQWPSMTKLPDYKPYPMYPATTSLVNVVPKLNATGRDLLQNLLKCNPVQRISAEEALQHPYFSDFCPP
Cyclin-dependent kinase 5/CDK5 activator 1, sequence (Q15078 whole entry, further chain): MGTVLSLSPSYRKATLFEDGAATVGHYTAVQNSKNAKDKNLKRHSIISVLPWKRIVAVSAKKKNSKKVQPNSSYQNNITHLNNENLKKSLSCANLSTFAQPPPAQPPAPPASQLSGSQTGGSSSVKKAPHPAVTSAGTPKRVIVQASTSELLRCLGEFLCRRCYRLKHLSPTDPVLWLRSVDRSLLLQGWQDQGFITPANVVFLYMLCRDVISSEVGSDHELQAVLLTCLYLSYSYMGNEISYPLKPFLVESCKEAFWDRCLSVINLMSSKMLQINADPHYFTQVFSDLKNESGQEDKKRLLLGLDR
Cholinesterase, sequence (P06276 whole entry): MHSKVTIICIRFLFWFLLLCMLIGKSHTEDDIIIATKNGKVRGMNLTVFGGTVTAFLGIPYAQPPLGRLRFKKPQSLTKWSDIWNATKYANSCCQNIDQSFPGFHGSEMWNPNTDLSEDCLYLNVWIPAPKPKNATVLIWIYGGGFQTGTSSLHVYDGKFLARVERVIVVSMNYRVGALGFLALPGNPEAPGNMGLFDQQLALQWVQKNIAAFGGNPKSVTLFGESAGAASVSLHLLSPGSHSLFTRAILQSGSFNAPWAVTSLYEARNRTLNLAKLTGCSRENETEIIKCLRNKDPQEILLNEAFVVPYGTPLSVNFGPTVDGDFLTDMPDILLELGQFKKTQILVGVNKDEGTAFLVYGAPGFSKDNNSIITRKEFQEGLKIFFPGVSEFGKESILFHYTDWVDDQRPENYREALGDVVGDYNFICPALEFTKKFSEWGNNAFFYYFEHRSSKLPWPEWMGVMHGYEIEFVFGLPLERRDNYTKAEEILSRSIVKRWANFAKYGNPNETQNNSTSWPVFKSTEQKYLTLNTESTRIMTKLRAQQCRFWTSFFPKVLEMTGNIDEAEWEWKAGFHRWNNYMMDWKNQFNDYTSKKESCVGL

Cn1cc(COCc2ccnc(NC(=O)Nc3cccc4c3C3CCCCN3C4=O)c2)nn1 (racemic)
IC50 [1]: 25 nM
IC50 [2]: 250 nM

C#CCCc1ccnc(NC(=O)Nc2cccc3c2C2CCCCN2C3=O)c1 (racemic)
IC50 [1]: 15 nM
IC50 [2]: 70 nM

C#Cc1cccc(NC(=O)Nc2cccc3c2C2CCCCN2C3=O)n1 (racemic)
IC50 [1]: 300 nM
IC50 [2]: 80 nM

O=C(Nc1ccc(-c2cn(CCNc3c4c(nc5ccccc35)CCCC4)nn2)cn1)Nc1cccc2c1C1CCCCN1C2=O (racemic)
IC50 (HCT-116): > 25000 nM
IC50 (MDA-MB-231): > 25000 nM
IC50 (Huh-7): > 25000 nM
IC50 (Caco-2): > 25000 nM
IC50 (NCI-H727): > 25000 nM
IC50 [1]: > 10000 nM
IC50 [2]: > 10000 nM
IC50 (Cholinesterase): 185 nM
IC50 (Acetylcholinesterase): 0.8 nM
IC50 (PC-3): > 25000 nM

O=C(Nc1cc(CCc2cn(CCNc3c4c(nc5ccccc35)CCCC4)nn2)ccn1)Nc1cccc2c1C1CCCCN1C2=O (racemic)
IC50 (HCT-116): 1100 nM
IC50 (HaCaT): 1900 nM
IC50 (MDA-MB-231): 2000 nM
IC50 (Huh-7): 2900 nM
IC50 (Caco-2): 4800 nM
IC50 (NCI-H727): 6300 nM
IC50 [1]: 21 nM
IC50 [2]: 800 nM
IC50 (Cholinesterase): 65.7 nM
IC50 (Acetylcholinesterase): 23.6 nM
IC50 (PC-3): 1600 nM

O=C(Nc1cc(-c2cn(CCNc3c4c(nc5ccccc35)CCCC4)nn2)ccn1)Nc1cccc2c1[C@H]1CCCCN1C2=O
IC50 (HCT-116): 2200 nM
IC50 (MDA-MB-231): 2000 nM
IC50 (Huh-7): 3500 nM
IC50 (Caco-2): 8000 nM
IC50 (NCI-H727): 5000 nM
IC50 [1]: 7 nM
IC50 [2]: 500 nM
IC50 (Cholinesterase): 395 nM
IC50 (Acetylcholinesterase): 9.5 nM
IC50 (PC-3): 3000 nM

O=C(Nc1cc(COCc2cn(CCCc3ccccc3)nn2)ccn1)Nc1cccc2c1C1CCCCN1C2=O (racemic)
IC50 [1]: 8 nM
IC50 [2]: 260 nM

C#Cc1ccnc(NC(=O)Nc2cccc3c2[C@@H]2CCCCN2C3=O)c1
IC50 [1]: 90 nM
IC50 [2]: 50 nM

O=C(Nc1cc(COCc2cn(CCNc3c4c(nc5ccccc35)CCCC4)nn2)ccn1)Nc1cccc2c1C1CCCCN1C2=O (racemic)
cytotoxicity at 24 h, 100 µM [3]: 50%
IC50 (HCT-116): 4000 nM
IC50 (HaCaT): 4000 nM
IC50 (MDA-MB-231): 4000 nM
IC50 (Huh-7): 4000 nM
IC50 (SH-SY5Y): 22000 nM
IC50 (Caco-2): 20000 nM
IC50 (NCI-H727): 9000 nM
IC50 [1]: 10 nM
IC50 [2]: 300 nM
efflux ratio (MDR1 [4]): 1.54
Papp A→B (MDR1 [5]): 13.5 ×10⁻⁶ cm/s
Activity (MDCK-MDR1): Non-Toxic
IC50 (Cholinesterase): 169 nM
IC50 (Acetylcholinesterase): 20.8 nM
IC50 (PC-3): 7000 nM
Papp B→A (MDR1 [6]): 20.8 ×10⁻⁶ cm/s

c1ccc2c(NCCn3ccnn3)c3c(nc2c1)CCCC3
IC50 [1]: > 10000 nM
IC50 [2]: > 10000 nM

O=C(Nc1cccc(-c2cn(CCNc3c4c(nc5ccccc35)CCCC4)nn2)n1)Nc1cccc2c1C1CCCCN1C2=O (racemic)
IC50 (HCT-116): 17000 nM
IC50 (MDA-MB-231): 17000 nM
IC50 (Huh-7): 18000 nM
IC50 (Caco-2): 24000 nM
IC50 (NCI-H727): > 25000 nM
IC50 [1]: 4200 nM
IC50 [2]: 3100 nM
IC50 (Cholinesterase): 21.1 nM
IC50 (Acetylcholinesterase): 133 nM
IC50 (PC-3): 27000 nM

C#Cc1ccc(NC(=O)Nc2cccc3c2C2CCCCN2C3=O)nc1 (racemic)
IC50 [1]: > 10000 nM
IC50 [2]: > 10000 nM

C#CCN(C)Cc1ccnc(NC(=O)Nc2cccc3c2C2CCCCN2C3=O)c1 (racemic)
IC50 [1]: 11 nM
IC50 [2]: 90 nM

O=C(Nc1cc(-c2cn(CCNc3c4c(nc5ccccc35)CCCC4)nn2)ccn1)Nc1cccc2c1[C@@H]1CCCCN1C2=O
IC50 (HCT-116): 2700 nM
IC50 (MDA-MB-231): 4000 nM
IC50 (Huh-7): 2600 nM
IC50 (Caco-2): 10000 nM
IC50 (NCI-H727): 7000 nM
IC50 [1]: 19 nM
IC50 [2]: 1100 nM
IC50 (Cholinesterase): 254 nM
IC50 (Acetylcholinesterase): 13.7 nM
IC50 (PC-3): 6000 nM

C#Cc1ccnc(NC(=O)Nc2cccc3c2C2CCCCN2C3=O)c1 (racemic)
IC50 [1]: 41 nM
IC50 [2]: 68 nM

C#Cc1ccnc(NC(=O)Nc2cccc3c2[C@H]2CCCCN2C3=O)c1
IC50 [1]: 33 nM
IC50 [2]: 18 nM

O=C(Nc1cc(COCc2cn(CCNc3ccncc3)nn2)ccn1)Nc1cccc2c1C1CCCCN1C2=O (racemic)
IC50 [1]: 30 nM
IC50 [2]: 200 nM

O=C(Nc1cc(COCc2cn(CCNc3ccnc4ccccc34)nn2)ccn1)Nc1cccc2c1C1CCCCN1C2=O (racemic)
IC50 [1]: > 10000 nM
IC50 [2]: 240 nM

C#CCOCc1ccnc(NC(=O)Nc2cccc3c2C2CCCCN2C3=O)c1 (racemic)
IC50 [1]: 60 nM
IC50 [2]: 150 nM

CN(Cc1ccnc(NC(=O)Nc2cccc3c2C2CCCCN2C3=O)c1)Cc1cn(CCNc2c3c(nc4ccccc24)CCCC3)nn1 (racemic)
cytotoxicity at 24 h, 100 µM [3]: 50%
IC50 (HCT-116): 2000 nM
IC50 (HaCaT): 2000 nM
IC50 (MDA-MB-231): 2000 nM
IC50 (Huh-7): 2000 nM
IC50 (SH-SY5Y): 25000 nM
IC50 (Caco-2): 9000 nM
IC50 (NCI-H727): 4000 nM
IC50 [1]: 10 nM
IC50 [2]: 310 nM
efflux ratio (MDR1 [4]): 0.83
Papp A→B (MDR1 [5]): 10.1 ×10⁻⁶ cm/s
Activity (MDCK-MDR1): Non-Toxic
IC50 (Cholinesterase): 206 nM
IC50 (Acetylcholinesterase): 58.6 nM
IC50 (PC-3): 3000 nM
Papp B→A (MDR1 [6]): 8.4 ×10⁻⁶ cm/s
